These results are taken from ChEMBL document CHEMBL1146250, “Synthesis and antimicrobial activity of 7-fluoro-3-aminosteroids” (2007).

Values after ≈ are worked out from the molar mass of the structure shown.

For assay [1], the system named is Escherichia coli. As to the kind of experiment: Antimicrobial activity against Escherichia coli DC2. Type of assay: functional.
Assay [2] has as its system Streptococcus pyogenes. As to the kind of experiment: Antimicrobial activity against Streptococcus pyogenes 308A. The class given is functional.
The subject of assay [3] is Streptococcus pyogenes. As to the kind of experiment: Antimicrobial activity against Streptococcus pyogenes 77A. Type of assay: functional.
The test system of assay [4] is Staphylococcus aureus. As to the kind of experiment: Antimicrobial activity against Staphylococcus aureus 503. Type of assay: functional.
In assay [5] the test system is Pseudomonas aeruginosa. As to the kind of experiment: Antimicrobial activity against Pseudomonas aeruginosa 9027. Type of assay: functional.
In assay [6] the test system is Pseudomonas aeruginosa. As to the kind of experiment: Antimicrobial activity against Pseudomonas aeruginosa 1771M. Type of assay: functional.
Assay [7] has as its system Salmonella typhimurium. As to the kind of experiment: Antimicrobial activity against Salmonella Typhimurium. The settings on record: Salmonella enterica. The class given is functional, Salmonella enterica subsp. enterica serovar Typhimurium.
The subject of assay [8] is Enterobacter cloacae. As to the kind of experiment: Antimicrobial activity against Enterobacter cloacae 1321E. Type of assay: functional.

For `CC(COS(=O)(=O)O)[C@H]1CC[C@H]2[C@@H]3[C@@H](F)C[C@H]4C[C@@H](NCCCNCCCCN)CC[C@]4(C)[C@H]3CC[C@]12C` (single isomer, unassigned), the MIC in assay [1] was 25 µg/mL (≈ 44.7 µM); in assay [2] it was 50 µg/mL (≈ 89.3 µM); in assay [3], 50 µg/mL (≈ 89.3 µM); in assay [4] it was 50 µg/mL (≈ 89.3 µM); in assay [5] it was 50 µg/mL (≈ 89.3 µM); in assay [6], 50 µg/mL (≈ 89.3 µM). Further, the MIC in assay [7] and in assay [8] was 50 µg/mL (≈ 89.3 µM) throughout.

In the case of `CC(CO)[C@H]1CC[C@H]2[C@@H]3[C@@H](F)C[C@H]4C[C@H](NCCCNCCCCN)CC[C@]4(C)[C@H]3CC[C@]12C` (single isomer, unassigned), the MIC in assay [1] was found to be 12.5 µg/mL (≈ 26.1 µM); in assay [2], 12.5 µg/mL (≈ 26.1 µM); in assay [3], 6.3 µg/mL (≈ 13.1 µM); in assay [4], 6.3 µg/mL (≈ 13.1 µM); in assay [5] it was 12.5 µg/mL (≈ 26.1 µM); in assay [6], 25 µg/mL (≈ 52.1 µM). For the same compound, the MIC in assay [7] came to 50 µg/mL (≈ 104 µM); in assay [8] it was 100 µg/mL (≈ 208 µM).

`CC(COS(=O)(=O)O)[C@H]1CC[C@H]2[C@@H]3[C@H](F)C[C@H]4C[C@H](NCCCNCCCCN)CC[C@]4(C)[C@H]3CC[C@]12C` (single isomer, unassigned): the MIC in assay [1] is 25 µg/mL (≈ 44.7 µM); in assay [2] it was 12.5 µg/mL (≈ 22.3 µM); in assay [3], 12.5 µg/mL (≈ 22.3 µM); in assay [4], 12.5 µg/mL (≈ 22.3 µM); in assay [5], 25 µg/mL (≈ 44.7 µM); in assay [6] it was 50 µg/mL (≈ 89.3 µM). Also, the MIC in assay [7] and in assay [8] was 100 µg/mL (≈ 179 µM) in each case.

`CC(CO)[C@H]1CC[C@H]2[C@@H]3[C@H](F)C[C@H]4C[C@@H](NCCCNCCCCN)CC[C@]4(C)[C@H]3CC[C@]12C` (single isomer, unassigned): the minimal inhibitory concentration (MIC) amounted to 6.3 µg/mL (≈ 13.1 µM) in assay [1]; 6.3 µg/mL (≈ 13.1 µM) in assay [2]; 6.3 µg/mL (≈ 13.1 µM) in assay [3]; 6.3 µg/mL (≈ 13.1 µM) in assay [4]; 6.3 µg/mL (≈ 13.1 µM) in assay [5]; 3.1 µg/mL (≈ 6.46 µM) in assay [6]. The MIC in assay [7] and in assay [8] was 100 µg/mL (≈ 208 µM) in each case.

As for `CC(COS(=O)(=O)O)[C@H]1CC[C@H]2[C@@H]3[C@@H](F)C[C@H]4C[C@H](NCCCNCCCCN)CC[C@]4(C)[C@H]3CC[C@]12C` (single isomer, unassigned), the MIC in assay [1] is 25 µg/mL (≈ 44.7 µM); in assay [2] it was 25 µg/mL (≈ 44.7 µM); in assay [3], 12.5 µg/mL (≈ 22.3 µM); in assay [4], 6.3 µg/mL (≈ 11.3 µM); in assay [5], 50 µg/mL (≈ 89.3 µM); in assay [6] it was 50 µg/mL (≈ 89.3 µM). Further, the MIC in assay [7] and in assay [8] was 50 µg/mL (≈ 89.3 µM) throughout.

`C[C@@H](COS(=O)(=O)O)[C@H]1CC[C@H]2[C@@H]3[C@H](O)C[C@H]4C[C@@H](NCCCNCCCCN)CC[C@]4(C)[C@H]3CC[C@]12C`: the MIC in assay [1], in assay [3], in assay [4], in assay [5], in assay [6] and in assay [7] was 50 µg/mL (≈ 89.6 µM) throughout. Moreover, inhibition of growth in assay [8] (MIC) required 50 µg/mL (≈ 89.6 µM).

On to `CC(CO)[C@H]1CC[C@H]2[C@@H]3CC[C@H]4C[C@@H](NCCCNCCCCN)CC[C@]4(C)[C@H]3CC[C@]12C` (single isomer, unassigned), for which the MIC in assay [1] amounted to 12.5 µg/mL (≈ 27.1 µM); in assay [2], 100 µg/mL (≈ 217 µM); in assay [3] it was 100 µg/mL (≈ 217 µM); in assay [4] it was 6.3 µg/mL (≈ 13.6 µM); in assay [5], 12.5 µg/mL (≈ 27.1 µM); in assay [6], 6.3 µg/mL (≈ 13.6 µM). Also, the MIC stood at 50 µg/mL (≈ 108 µM) in assay [7] and 100 µg/mL (≈ 217 µM) in assay [8].

Regarding `CC(CO)[C@H]1CC[C@H]2[C@@H]3[C@H](F)C[C@H]4C[C@H](NCCCNCCCCN)CC[C@]4(C)[C@H]3CC[C@]12C` (single isomer, unassigned), the MIC was 50 µg/mL (≈ 104 µM) in assay [1]; 25 µg/mL (≈ 52.1 µM) in assay [2]; 12.5 µg/mL (≈ 26.1 µM) in assay [3]; 12.5 µg/mL (≈ 26.1 µM) in assay [4]; 50 µg/mL (≈ 104 µM) in assay [5]; 100 µg/mL (≈ 208 µM) in assay [6]. For the same compound, the MIC in assay [7] and in assay [8] was 100 µg/mL (≈ 208 µM) in each case.

For the compound `CC(CO)[C@H]1CC[C@H]2[C@@H]3[C@@H](F)C[C@H]4C[C@@H](NCCCNCCCCN)CC[C@]4(C)[C@H]3CC[C@]12C` (single isomer, unassigned), the minimum inhibitory concentration (MIC) was 12.5 µg/mL (≈ 26.1 µM) in assay [1]; 12.5 µg/mL (≈ 26.1 µM) in assay [2]; 12.5 µg/mL (≈ 26.1 µM) in assay [3]; 6.3 µg/mL (≈ 13.1 µM) in assay [4]; 12.5 µg/mL (≈ 26.1 µM) in assay [5]; 6.3 µg/mL (≈ 13.1 µM) in assay [6]. The MIC in assay [7] and in assay [8] was 100 µg/mL (≈ 208 µM) throughout.

In the case of `CC(COS(=O)(=O)O)[C@H]1CC[C@H]2[C@@H]3[C@H](F)C[C@H]4C[C@@H](NCCCNCCCCN)CC[C@]4(C)[C@H]3CC[C@]12C` (single isomer, unassigned), the minimal inhibitory concentration (MIC) in assay [1] came to 50 µg/mL (≈ 89.3 µM); in assay [2], 50 µg/mL (≈ 89.3 µM); in assay [3], 50 µg/mL (≈ 89.3 µM); in assay [4], 25 µg/mL (≈ 44.7 µM); in assay [5], 12.5 µg/mL (≈ 22.3 µM); in assay [6], 25 µg/mL (≈ 44.7 µM). Further, the minimum inhibitory concentration (MIC) in assay [7] and in assay [8] was 100 µg/mL (≈ 179 µM) throughout.

`C[C@@H](CO)[C@H]1CC[C@H]2[C@@H]3[C@H](O)C[C@H]4C[C@@H](NCCCNCCCCN)CC[C@]4(C)[C@H]3CC[C@]12C`: the MIC was found to be 25 µg/mL (≈ 52.3 µM) in assay [1]; 25 µg/mL (≈ 52.3 µM) in assay [2]; 25 µg/mL (≈ 52.3 µM) in assay [3]; 12.5 µg/mL (≈ 26.2 µM) in assay [4]; 12.5 µg/mL (≈ 26.2 µM) in assay [5]; 25 µg/mL (≈ 52.3 µM) in assay [6]. For the same compound, the MIC in assay [7] and in assay [8] was 50 µg/mL (≈ 105 µM) throughout.
